Measured values as given in publication PMC9596378, “Discovery and molecular basis of subtype-selective cyclophilin inhibitors” (Nature Chemical Biology, 2022).
Read-outs that look alike come from different tables or passages of the source.

Molecular target: CypD (Homo sapiens, UniProt P30405)
Assay: Chymotrypsin coupled prolyl-isomerase assay
Protocol: Five microliters of compound pre-dissolved in 5% DMSO/assay buffer was then added to appropriate wells and incubated at 2–3 °C for 5 min. Five microliters of 0.5 mM α-chymotrypsin from bovine pancreas (Type II, lyophilized powder, Millipore-Sigma) in 20% 1 mM HCl/Assay Buffer was then added to each well and incubated at 2–3 °C for 5 min. The plate was then quickly transferred to a FLIPR Tetra High-Throughput Cellular Screening System (Molecular Devices). Using the internal liquid handling system of the FLIPR, 1 µL 0.5 mM Suc-AAPF-AMC (Chymotrypsin Substrate II, Millipore-Sigma) dissolved in 0.55 M LiCl/2,2,2-trifluoroethanol was added to each well, which was then mixed for 5 s, followed by immediate fluorescence measurements every 1 s for 330 s using a 360–380 nm excitation LED module and a 400–460 nm emission filter. […] Raw fluorescence data was analyzed by non-linear regression analysis with Prism v.9 by fitting one-phase association curves to each well. […] Rate constants calculated for each well (s^−1) were then normalized to substrate only (no prolyl-isomerase) and enzyme + substrate only controls.

[1] = IC50 CypD cis, cis olefin isomer
[2] = IC50 CypD trans, trans olefin isomer

CypD, sequence (P30405 45-207): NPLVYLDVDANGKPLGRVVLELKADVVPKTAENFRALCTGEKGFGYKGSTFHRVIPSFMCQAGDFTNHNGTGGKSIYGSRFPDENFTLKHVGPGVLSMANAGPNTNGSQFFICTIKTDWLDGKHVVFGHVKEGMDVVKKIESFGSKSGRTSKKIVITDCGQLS

| Compound | IC50 | other results |
| --- | --- | --- |
| NCCOCCNC(=O)C1CCNC(=O)C=CC(=O)N2CCCC(C2)C(=O)NC(Cc2ccco2)C(=O)NCc2ccccc2CC(=O)N1 (centres unmarked) [Compound A7] | > 100 µM |  |
| NCCOCCNC(=O)C1CCNC(=O)C=CC(=O)N2CCCC(C2)C(=O)NC(CC=Cc2ccccc2)C(=O)NCc2ccccc2CC(=O)N1 (centres unmarked) [Compound A11] | 17 ± 4 µM |  |
| NCCOCCNC(=O)C1CNC(=O)C=CC(=O)NC2CCC(CC2)C(=O)NC(Cc2ccco2)C(=O)NCc2ccccc2CC(=O)N1 (centres unmarked) [JOGA] |  | IC50 [1]: > 100 µM; IC50 [2]: > 100 µM |
| NCCOCCNC(=O)C1CCNC(=O)C=CC(=O)NC2CCCC(C2)C(=O)NC(Cc2ccco2)C(=O)NCc2ccccc2CC(=O)N1 (centres unmarked) [Compound A28] | 10 ± 2 µM |  |
| NCCOCCNC(=O)C1CCNC(=O)C=CC(=O)NC2CCCC(C2)C(=O)NC(Cc2ccco2)C(=O)NCc2ccccc2CC(=O)N1 (centres unmarked) [Compound A29] | 6.2 ± 0.9 µM |  |
| NCCOCCNC(=O)C1CCNC(=O)C=CC(=O)N2CCC(C2)C(=O)NC(Cc2ccco2)C(=O)NCc2ccccc2CC(=O)N1 (centres unmarked) [Compound A24] | > 100 µM |  |
| NCCOCCNC(=O)C1CCNC(=O)C=CC(=O)N2CCCC(C2)C(=O)NC(Cc2ccco2)C(=O)NCc2ccccc2C(=O)N1 (centres unmarked) [Compound A1] | > 100 µM |  |
| NCCOCCNC(=O)C1CCNC(=O)C=CC(=O)N2CCCC(C2)C(=O)NC(Cc2ccco2)C(=O)NCc2ccccc2CC(=O)N1 (centres unmarked) [JOMB] |  | IC50 [1]: > 100 µM |
| CC(C)(C)c1ccc(CC2NC(=O)C3CCCN(C3)C(=O)C=CC(=O)NCCC(C(=O)NCCOCCN)NC(=O)Cc3ccccc3CNC2=O)cc1 (centres unmarked) [Compound A20] | 10 ± 2 µM |  |
| NCCOCCNC(=O)C1CCNC(=O)CCC(=O)N2CCCC(C2)C(=O)NC(Cc2ccco2)C(=O)NCc2ccccc2CC(=O)N1 (centres unmarked) [Compound A30] | > 100 µM |  |
| NCCOCCNC(=O)C1CNC(=O)C=CC(=O)N2CCCC(C2)C(=O)NC(Cc2ccco2)C(=O)NCc2ccccc2CC(=O)N1 (centres unmarked) [JOMAt] | > 100 µM |  |
| CC(C)(C)CC1NC(=O)C(CC2CCCCC2)NC(=O)C2CCCN2C(=O)C=CC(=O)NCc2cccc(c2)CC(C(=O)NCCOCCN)NC1=O (centres unmarked) [HJJJt/c] |  | CypD prolyl-isomerase inhibition (in words): no prolyl-isomerase inhibition; IC50 [1]: > 100 µM; IC50 [2]: > 100 µM |
| CC1NC(=O)C2CCCN(C2)C(=O)C=CC(=O)NCCC(C(=O)NCCOCCN)NC(=O)Cc2ccccc2CNC1=O (centres unmarked) [Compound A8] | > 100 µM |  |
| NCCOCCNC(=O)C1CCNC(=O)C=CC(=O)N2CCCC(C2)C(=O)NC(Cc2ccccc2)C(=O)NCc2ccccc2CC(=O)N1 (centres unmarked) [Compound A9] | 17 ± 6 µM |  |
| CC(C)(C)CC1NC(=O)C(Cc2ccco2)NC(=O)C2CCCN2C(=O)C=CC(=O)NCc2cccc(c2)CC(C(=O)NCCOCCN)NC1=O (centres unmarked) [HOJJt/c] |  | CypD prolyl-isomerase inhibition (in words): no prolyl-isomerase inhibition; IC50 [1]: > 100 µM; IC50 [2]: > 100 µM |

Now from value to compound, other results behind:

| IC50 | Compound | other results |
| --- | --- | --- |
| > 100 µM | NCCOCCNC(=O)C1CCNC(=O)C=CC(=O)N2CCCC2CC(=O)NC(Cc2ccco2)C(=O)NCc2ccccc2CC(=O)N1 (centres unmarked) [JOCBt] |  |
| > 100 µM | NCCOCCNC(=O)C1CCNC(=O)C=CC(=O)N2CCCCC2C(=O)NC(Cc2ccco2)C(=O)NCc2ccccc2CC(=O)N1 (centres unmarked) [Compound A23] |  |
| > 100 µM | NCCOCCNC(=O)C1CCNC(=O)C=CC(=O)N2CCCC(C2)C(=O)NC(Cc2ccco2)C(=O)NCc2ccccc2CC(=O)N1 (centres unmarked) [Compound A21] |  |
| > 100 µM | CC(C)CC1NC(=O)C2CCCN(C2)C(=O)C=CC(=O)NCCC(C(=O)NCCOCCN)NC(=O)Cc2ccccc2CNC1=O (centres unmarked) [Compound A10] |  |
| 18 ± 3 µM | NC(=O)C1CCNC(=O)C=CC(=O)N2CCCC(C2)C(=O)NC(Cc2ccco2)C(=O)NCc2ccccc2CC(=O)N1 (centres unmarked) [JOMBt-A] |  |
| > 100 µM | NCCOCCNC(=O)C1CCNC(=O)C=CC(=O)N2CCCC(C2)C(=O)NC(CC2CCCCC2)C(=O)NCc2ccccc2CC(=O)N1 (centres unmarked) [Compound A12] |  |
| 14 ± 3 µM | NCCOCCNC(=O)C1CCNC(=O)C=CC(=O)N2CCCC(C2)C(=O)NC(Cc2cccs2)C(=O)NCc2ccccc2CC(=O)N1 (centres unmarked) [Compound A17] |  |
| 49 ± 6 µM | NCCOCCNC(=O)C1CCNC(=O)C=CC(=O)N2CCCC(CC(=O)NC(Cc3ccco3)C(=O)NCc3ccccc3CC(=O)N1)C2 (centres unmarked) [JOBBt] |  |
| > 100 µM | NC(=O)C1CCNC(=O)C=CC(=O)NC2CCC(CC2)C(=O)NC(Cc2ccco2)C(=O)NCc2ccccc2CC(=O)N1 (centres unmarked) [JOGBt-A] |  |
| 5.2 ± 0.3 µM | NCCCOCCOCCOCCCNC(=O)C1CCNC(=O)C=CC(=O)N2CCCC(C2)C(=O)NC(Cc2ccco2)C(=O)NCc2ccccc2CC(=O)N1 (centres unmarked) [JOMBt-D] |  |
| > 100 µM | NCCOCCNC(=O)C1CCNC(=O)C=CC(=O)N2CCCC(C2)C(=O)NC(Cc2ccco2)C(=O)Nc2ccccc2C(=O)N1 (centres unmarked) [Compound A6] |  |
| > 100 µM | NCCOCCNC(=O)C1CCNC(=O)C=CC(=O)N2CCCC(C2)C(=O)NC(CCc2ccccc2)C(=O)NCc2ccccc2CC(=O)N1 (centres unmarked) [Compound A16] |  |
| 18 ± 3 µM | NCCOCCNC(=O)C1CCNC(=O)C=CC(=O)N2CCCC(C2)C(=O)NC(Cc2ccc(-c3ccccc3)cc2)C(=O)NCc2ccccc2CC(=O)N1 (centres unmarked) [Compound A15] |  |
| > 100 µM | NCCOCCNC(=O)C1CCNC(=O)C=CC(=O)N2CCCC(C2)C(=O)NC(Cc2ccco2)C(=O)NC2C=CC(C2)C(=O)N1 (centres unmarked) [Compound A4] |  |
| > 100 µM | NCCOCCNC(=O)C1CCCNC(=O)C=CC(=O)N2CCCC(C2)C(=O)NC(Cc2ccco2)C(=O)NCc2ccccc2CC(=O)N1 (centres unmarked) [JOMCt] |  |
| > 100 µM | NCCOCCNC(=O)C1CCNC(=O)C=CC(=O)N2CCCC(C2)C(=O)NC(Cc2ccco2)C(=O)Nc2ccccc2CC(=O)N1 (centres unmarked) [Compound A2] |  |
| ~90 µM | NCCOCCNC(=O)C1CCNC(=O)Cc2ccccc2CNC(=O)C(Cc2ccco2)NC(=O)C2CCCN(C2)C(=O)C=CC(=O)N1 (centres unmarked) [JOMFt] |  |
| > 100 µM | NCCOCCNC(=O)C1CCNC(=O)C=CC(=O)N2CCCC(C2)C(=O)NC(Cc2ccco2)C(=O)NCc2ccccc2CC(=O)N1 (centres unmarked) [JOMBc] |  |
| > 100 µM | NC(=O)C1CCNC(=O)C=CC(=O)N2CCCC(CC(=O)NC(Cc3ccco3)C(=O)NCc3ccccc3CC(=O)N1)C2 (centres unmarked) [JOBBc-A] |  |
| 22 ± 3 µM | Cc1cccc(CC2NC(=O)C3CCCN(C3)C(=O)C=CC(=O)NCCC(C(=O)NCCOCCN)NC(=O)Cc3ccccc3CNC2=O)c1 (centres unmarked) [Compound A19] |  |
| > 100 µM | NCCOCCNC(=O)C1CCNC(=O)Cc2ccccc2CNC(=O)C(Cc2ccco2)NC(=O)C2CCCN(C2)C(=O)C=CC(=O)N1 (centres unmarked) [JOMFc] |  |
